Assay results as given in patent US20100143379A1 (priority 2005, published 2010).

How the values were obtained:
Type in all cases: cell-based
[1] = system: CD74; assay: CD74 phospho-serine sandwich ELISA; conditions: H-89 20 μM; RO-31-2880 10 μM; COS-7/CD74+CD44
Procedure: (§1) FIGS. 12A-12E show the phosphoserine content of CD74 and CD44 measured by ELISA. […] The ELISA values represent the mean±SD of triplicate measurements. Experiments were replicated twice. *P<0.02 versus corresponding control (Student's T test, two-tailed). […] Cell lysates were prepared and probed for PKA and PKC using phospho-specific, and total anti-PKA and anti-PKC antibodies.
The observation that the phosphoserine content of CD74 increased only in cells that expressed CD74 and full-length CD44 is consistent with the notion that the MIF-mediated phosphorylation of CD74 is dependent on the activity of the CD44 intracytoplasmic domain.
(§2) The serine phosphorylation of CD74 and CD44 was quantified by specific sandwich ELISA (Perez et al. (2003). Nature Immunol 4:1083-92). […] After several washes (0.5% Tween-20 in PBS), 0.2 μg/ml anti-phospho-serine antibody (Hypromatrix) conjugated with horseradish peroxidase was added, and immunoreactivity measured by the TMB reagent (DakoCytomation) and the data analyzed with SpectraMax Plus (Molecular Devices).
Cell lysates were collected and analyzed by immunoblots using a pair of anti-phospho-PICA and anti-(total)-PKA antibodies, a pair of anti-phospho-PKC (all from Cell Signaling) and anti-(total)-PKC (Santa Cruz) antibodies, or a pair of anti-phospho-p56^lck (Cell Signaling) and anti-(total) p56^lck (sc-433, Santa Cruz) antibodies.

[2] = system: CD44; assay: CD44 phospho-serine sandwich ELISA; conditions: H-89, 20 μM; RO-31-2880, 10 μM
Procedure: as §1
Ser325 is constitutively phosphorylated in resting cells, but undergoes de-phosphorylation in response to PKC activating stimuli such as phorbol esters. […] The effect of MIF-stimulation CD44 phosphorylation was analyzed in the COS-7 and MEF cell lines by sandwich ELISA using an anti-CD44 capture antibody to quantify CD44 phospho-serine residues (Perez et al. (2003). Nature Immunol. 4:1083-92). […]
as §2, with “Devices). […]” for “Devices).”

[3] = system: ERK-1/2; assay: ERK-1/2 phosphorylation in COS-7/M6 stable transformants (Western blot); conditions: 20 nM; COS-7/CD74+CD44 cell line or primary macrophages
[4] = system: murine bone marrow progenitor cultures; assay: BFU-E and CFU-E erythropoietin-dependent progenitor colony assays; conditions: 10-100 ng/ml MIF, 1-20 ng/ml TNFα, or 10-100 U/ml IFNγ
Procedure: Bone marrow cells were harvested, plated in a methylcellulose-based medium, and colony numbers scored after the addition of murine cytokines. Individual assays were performed in duplicate, and the data shown is a compilation of 3-6 independently performed experiments. % inhibition of colony formation is calculated with reference to a cytokine-minus control. All values shown are the mean±SD and are significant when compared to wells with no cytokine addition (P<0.05). CFU-E: colony forming unit—erythroid; BFU-E: burst-forming unit—erythroid.
The two inflammatory cytokines, TNFα and IFNγ, were also studied. TNFα and IFNγ are produced as a consequence of macrophage and T cell activation (McDevitt et al. 2004. Curr Hematol Rep 3:97-106). The appearance of BFU-E and CFU-E were quantified after culture with these cytokines, applied either alone or in combination.
BFU-E and CFU-E Progenitor Cell Assays. The progenitor cell (colony) assays were performed according to the standardized methods described previously (Martiney et al. 2000. Infection and Immunity 68:2259-2267) and protocols from StemCell Technologies (Vancouver; BC, Canada). Briefly, washed murine bone marrow cells were plated in sterile 35-mm dishes containing a methylcellulose-based medium and growth factors. The total number of bone marrow cells plated in duplicate culture dishes were as follows: 2×10^5 for CFU-E and 5×10^5 for BFU-E. MethoCult™ M3334 was utilized for the CFU-E and BFU-E colony assays. The media for CFU-E and BFU-E was volume adjusted by adding 1 part Isocove's MDM to 9 parts MethoCult™ M3334 to give final concentrations of the following components: 15% fetal bovine serum, 1% BSA, […] transferrin, […] insulin, 1% methylcellulose, 10^−4 M 2-mercaptoethanol, 2 mM L-glutamine and 3 units/ml erythropoietin. Each assay of different bone marrow progenitor cells was performed independently 3-6 times.

[5] = system: HIV-1ADA; assay: HIV-1 replication in monocyte-derived macrophage cultures (RT activity); conditions: polymyxin B 10 μg/ml added to MIF 50 ng/ml
Procedure: (§3) Triplicate cultures of monocyte-derived macrophages were infected with HIV-1ADA in the presence of anti-MIF MAb (25 μg/ml) or isotype control. Virus replication was monitored by RT activity in culture supernatants. Results are presented as mean±SD. […] Control cultures were cultivated with PMB mixed with an isotype immunoglobulin with or without MIF.
as §3, with “To investigate this possibility, HIV-infected macrophages were cultured in the presence of a neutralizing anti-MIF antibody or isotype control. Triplicate” for “Triplicate”, “supernatants.” for “supernatants. Results are presented as mean±SD.”

O=S(=O)(NCCNC/C=C/c1ccc(Br)cc1)c1cccc2cnccc12 [H-89, reference compound]
MIF stimulation of CD74 phosphorylation in presence of kinase inhibitor [1]: decreased markedly
serine phosphorylation of CD44 after MIF stimulation in presence of kinase inhibitor [2]: reduced by PKA inhibition

COc1c(C=O)c(O)cc2c1C(=O)c1ccccc1C2=O [damnacanthal, reference compound]
phosphorylation of ERK1/2 [3]: inhibition of the phosphorylation of p56^lck and ERK1/2

TNFα
BFU-E and CFU-E colony formation [4]: dose-dependently inhibited

polymyxin B [reference compound]
inhibitory effect of MIF on viral replication [5]: did not significantly reduce the inhibitory effect of MIF

B1: IFNγ: Recombinant mouse IFN-γ from R&D Systems (protein, UniProt P01580 23-155, looked up)
Interferon gamma: HGTVIESLESLNNYFNSSGIDVEEKSLFLDIWRNWQKDGDMKILQSQIISFYLRLFEVLKDNQAISNNISVIESHLITTFFSNSKAKKDAFMSIAKFEVNNPQVQRQAFNELIRVVHQLLPESSLRKRKRSRC
BFU-E and CFU-E colony formation [4]: dose-dependently inhibited
